Legend:
[1] = molecular target: T1, CDK2/CyclinE (Homo sapiens, UniProt P24941); assay: CDK2/CycE kinase assay (TR-FRET); type: biochemical; details: 2 mM ATP (high ATP); median; read-out: CDK2/CyclinE, 2 mM ATP (high ATP) IC50 - [mol/l] (median)
T1 construct: GST; purchased ProQinase GmbH (Freiburg, Germany); host or cells: insect cells (Sf9)
Text: 2.4 CDK2/CycE Kinase Assay
CDK2/CycE-inhibitory activity of compounds of the present invention was quantified employing the CDK2/CycE TR-FRET assay as described in the following paragraphs.
Recombinant fusion proteins of GST and human CDK2 and of GST and human CycE, expressed in insect cells (Sf9) and purified by Glutathion-Sepharose affinity chromatography, were purchased from ProQinase GmbH (Freiburg, Germany). As substrate for the kinase reaction biotinylated peptide biotin-Ttds-YISPLKSPYKISEG (C-terminus in amid form) was used which can be purchased e.g. form the company JERINI peptide technologies (Berlin, Germany).
For the assay 50 nanoL of a 100 fold concentrated solution of the test compound in DMSO was pipetted into a black low volume 384 well microtiter plate or a black 1536 well microtiter plate (both Greiner Bio-One, Frickenhausen, Germany), 2 microL of a solution of CDK2/CycE in aqueous assay buffer [50 millimol/L Tris/HCl pH 8.0, 10 millimol/L MgCl2, 1.0 millimol/L dithiothreitol, 0.1 millimol/L sodium ortho-vanadate, 0.01% (v/v) Nonidet-P40 (Sigma)] were added and the mixture was incubated for 15 min at 22° C. to allow pre-binding of the test compounds to the enzyme before the start of the kinase reaction. Then the kinase reaction was started by the addition of 3 microL of a solution of adenosine-tri-phosphate (ATP, 3.33 millimol/L=>final conc. in the 5 microL assay volume is 2 millimol/L) and substrate (1.25 micromol/L=>final conc. in the 5 microL assay volume is 0.75 micromol/L) in assay buffer and the resulting mixture was incubated for a reaction time of 25 min at 22° C. The concentration of CDK2/CycE was adjusted depending of the activity of the enzyme lot and was chosen appropriate to have the assay in the linear range, typical concentrations were in the range of 10 ng/mL. The reaction was stopped by the addition of 3 microL of a solution of TR-FRET detection reagents (0.333 micromol/L streptavidine-XL665 [Cisbio Bioassays, Codolet, France] and 1.67 nanomol/L anti-RB(pSer807/pSer811)-antibody from BD Pharmingen [#558389] and 2 nanomol/L LANCE EU-W1024 labeled anti-mouse IgG antibody [Perkin-Elmer, product no. AD0077, as an alternative a Terbium-cryptate-labeled anti-mouse IgG antibody from Cisbio Bioassays can be used]) in an aqueous EDTA-solution (167 millimol/L EDTA, 0.2% (w/v) bovine serum albumin in 100 millimol/L HEPES pH 7.5).
The resulting mixture was incubated 1 h at 22° C. to allow the formation of complex between the phosphorylated biotinylated peptide and the detection reagents. Subsequently the amount of phosphorylated substrate was evaluated by measurement of the resonance energy transfer from the Eu-chelate to the streptavidine-XL. Therefore, the fluorescence emissions at 620 nm and 665 nm after excitation at 350 nm was measured in a TR-FRET reader, e.g. a Pherastar (BMG Labtechnologies, Offenburg, Germany) or a Viewlux (Perkin-Elmer). The ratio of the emissions at 665 nm and at […] was taken as the measure for the amount of phosphorylated substrate. The data were normalised (enzyme reaction without inhibitor=0% inhibition, all other assay components but no enzyme=100% inhibition).

[2] = molecular target: T2, CDK12 (Homo sapiens, UniProt Q9NYV4); assay: CDK12 nuclear protein level: immunofluorescence/high content analysis in CAL-120 cells; type: cell-based; details: for DC50: CAL-120 cells, 24 h, nuclear CDK12 staining intensity, median, read-out: CDK12 degradation IF DC50 - [mol/l] (median); for (IC50 CDK12 high ATP) to (Degradation DC50 CDK12) ratio: ratio of IC50 CDK12 hATP (2 mM ATP) to DC50 CDK12 (IF, CAL-120)
T2 construct: endogenous in cells; host or cells: CAL-120 human breast cancer cells (DSMZ ACC 459)
Summary of the method: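 Cells were exposed to compounds in dose-response for 24 h at 37 °C, then PFA-fixed, immunostained for CDK12 and counterstained with Hoechst before confocal imaging. Nuclear CDK12 intensity was normalized to DMSO and control. DC50 is the concentration giving 50% reduction of nuclear staining.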

T2 sequence (Q9NYV4 whole entry): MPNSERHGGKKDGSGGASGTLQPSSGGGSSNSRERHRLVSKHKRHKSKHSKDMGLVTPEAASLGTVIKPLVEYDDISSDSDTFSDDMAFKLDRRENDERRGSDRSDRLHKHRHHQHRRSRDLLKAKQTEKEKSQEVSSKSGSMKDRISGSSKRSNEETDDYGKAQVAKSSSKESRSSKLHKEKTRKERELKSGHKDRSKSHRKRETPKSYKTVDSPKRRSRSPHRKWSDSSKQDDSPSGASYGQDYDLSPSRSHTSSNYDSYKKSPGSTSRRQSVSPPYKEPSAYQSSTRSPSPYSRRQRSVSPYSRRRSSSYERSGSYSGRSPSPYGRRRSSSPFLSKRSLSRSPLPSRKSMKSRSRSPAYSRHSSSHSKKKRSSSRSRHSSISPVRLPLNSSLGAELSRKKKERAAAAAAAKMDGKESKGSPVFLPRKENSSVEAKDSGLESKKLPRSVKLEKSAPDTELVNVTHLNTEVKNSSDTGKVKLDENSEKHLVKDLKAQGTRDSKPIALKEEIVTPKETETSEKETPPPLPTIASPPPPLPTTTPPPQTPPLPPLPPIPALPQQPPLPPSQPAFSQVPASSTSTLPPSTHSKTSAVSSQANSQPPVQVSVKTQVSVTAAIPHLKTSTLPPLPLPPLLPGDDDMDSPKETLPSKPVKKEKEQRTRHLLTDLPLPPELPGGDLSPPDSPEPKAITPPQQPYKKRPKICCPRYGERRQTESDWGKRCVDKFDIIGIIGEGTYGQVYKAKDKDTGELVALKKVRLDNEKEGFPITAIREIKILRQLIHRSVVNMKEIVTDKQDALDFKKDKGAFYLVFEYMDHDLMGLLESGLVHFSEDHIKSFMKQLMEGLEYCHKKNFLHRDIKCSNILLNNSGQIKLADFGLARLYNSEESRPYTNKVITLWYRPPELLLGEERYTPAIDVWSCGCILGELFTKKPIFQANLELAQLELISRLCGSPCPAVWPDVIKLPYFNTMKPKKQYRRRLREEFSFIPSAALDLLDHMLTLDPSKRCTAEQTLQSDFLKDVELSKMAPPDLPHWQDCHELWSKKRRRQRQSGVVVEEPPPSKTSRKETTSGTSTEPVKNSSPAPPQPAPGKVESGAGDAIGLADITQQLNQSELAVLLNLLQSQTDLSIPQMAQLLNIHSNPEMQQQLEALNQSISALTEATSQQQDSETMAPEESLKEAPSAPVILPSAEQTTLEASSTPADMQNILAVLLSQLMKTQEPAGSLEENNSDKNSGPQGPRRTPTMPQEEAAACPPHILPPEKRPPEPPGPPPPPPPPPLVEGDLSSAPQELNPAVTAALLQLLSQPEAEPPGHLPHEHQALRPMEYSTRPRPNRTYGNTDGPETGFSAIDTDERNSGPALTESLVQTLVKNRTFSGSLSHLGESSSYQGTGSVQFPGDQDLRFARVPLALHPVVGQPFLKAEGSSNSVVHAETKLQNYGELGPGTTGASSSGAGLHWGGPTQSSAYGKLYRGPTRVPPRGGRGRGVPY
T2 sequence (O75909 whole entry partner): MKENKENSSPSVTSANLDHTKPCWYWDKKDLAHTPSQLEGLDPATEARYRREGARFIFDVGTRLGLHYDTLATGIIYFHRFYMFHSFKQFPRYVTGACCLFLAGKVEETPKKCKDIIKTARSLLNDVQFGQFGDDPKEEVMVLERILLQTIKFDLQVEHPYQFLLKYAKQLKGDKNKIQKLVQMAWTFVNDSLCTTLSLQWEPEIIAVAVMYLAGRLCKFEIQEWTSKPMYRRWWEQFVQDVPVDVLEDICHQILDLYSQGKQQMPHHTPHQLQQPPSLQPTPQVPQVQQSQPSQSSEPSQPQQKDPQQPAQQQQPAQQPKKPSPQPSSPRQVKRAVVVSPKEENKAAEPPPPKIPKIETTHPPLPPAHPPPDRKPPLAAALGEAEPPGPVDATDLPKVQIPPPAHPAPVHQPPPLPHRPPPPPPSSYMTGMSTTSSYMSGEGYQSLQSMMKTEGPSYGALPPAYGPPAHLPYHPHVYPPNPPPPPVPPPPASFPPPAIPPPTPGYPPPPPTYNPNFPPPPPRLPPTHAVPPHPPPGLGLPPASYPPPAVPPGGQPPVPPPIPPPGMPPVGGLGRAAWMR

SMILES | IC50 [1] [nM] | DC50 [2] [nM] | (IC50 CDK12 high ATP) to (Degradation DC50 CDK12) ratio [2]
CN1CCC(n2nc(NCc3nc4c(Br)cccc4[nH]3)c3ncc(C4CC4)nc32)CC1 [Example 20, N-[(4-bromo-1H-benzimidazol-2-yl)methyl]-6-cyclopropyl-1-(1-methylpiperidin-4-yl)-1H-pyrazolo[3,4-b]pyrazin-3-amine] | > 20000 | 22.2 | >1050
CN1CCC(n2nc(NCc3nc4c(C(F)(F)F)cccc4[nH]3)c3ncc(C4CC4)nc32)CC1 [Example 7, 6-cyclopropyl-1-(1-methylpiperidin-4-yl)-N-{[4-(trifluoromethyl)-1H-benzimidazol-2-yl]methyl}-1H-pyrazolo[3,4-b]pyrazin-3-amine] | > 20000 | 14.4 | –
CN1CCC(n2nc(NCc3nc4ccccc4[nH]3)c3ncc(C4CC4)nc32)C1 (racemic) [Example 35, (±)-N-[(1H-benzimidazol-2-yl)methyl]-6-cyclopropyl-1-(1-methylpyrrolidin-3-yl)-1H-pyrazolo[3,4-b]pyrazin-3-amine] | > 20000 | 19.1 | >1046
COc1cccc2[nH]c(CNc3nn(C4CCOCC4)c4nc(C5CC5)cnc34)nc12 [Example 24, 6-cyclopropyl-N-[(4-methoxy-1H-benzimidazol-2-yl)methyl]-1-(oxan-4-yl)-1H-pyrazolo[3,4-b]pyrazin-3-amine] | 17900 | 12 | 1614
CC(C)(O)CCn1nc(NCc2nc3ccccc3[nH]2)c2ncc(C3CC3)nc21 [Example 76, 4-(3-{[(1H-benzimidazol-2-yl)methyl]amino}-6-cyclopropyl-1H-pyrazolo[3,4-b]pyrazin-1-yl)-2-methylbutan-2-ol] | > 20000 | 2.17 | >9202
OCC1(Cn2nc(NCc3nc4ccccc4[nH]3)c3ncc(C4CC4)nc32)CCC1 [Example 74, {1-[(3-{[(1H-benzimidazol-2-yl)methyl]amino}-6-cyclopropyl-1H-pyrazolo[3,4-b]pyrazin-1-yl)methyl]cyclobutyl}methanol] | > 20000 | 15.1 | >660
Cn1nc(NCc2nc3ccccc3[nH]2)c2ncc(C3CC3)nc21 [Example 15, N-[(1H-benzimidazol-2-yl)methyl]-6-cyclopropyl-1-methyl-1H-pyrazolo[3,4-b]pyrazin-3-amine] | > 20000 | 155 | >129
COCCC(C)n1nc(NCc2nc3ccccc3[nH]2)c2ncc(C3CC3)nc21 (single isomer, unassigned; (-)) [Example 58, (−)-N-[(1H-benzimidazol-2-yl)methyl]-6-cyclopropyl-1-[4-methoxybutan-2-yl]-1H-pyrazolo[3,4-b]pyrazin-3-amine] | > 20000 | 27.2 | >735
c1ccc2[nH]c(CNc3nn(C4CCOC4)c4nc(C5CC5)cnc34)nc2c1 (single isomer, unassigned) [Example 17, (+) or (−)-N-[(1H-benzimidazol-2-yl)methyl]-6-cyclopropyl-1-(oxolan-3-yl)-1H-pyrazolo[3,4-b]pyrazin-3-amine] | > 20000 | 24.8 | >807
CC1CC(n2nc(NCc3nc4ccccc4[nH]3)c3ncc(C4CC4)nc32)CCN1C (racemic) [Example 41, (±)-cis/trans-N-[(1H-benzimidazol-2-yl)methyl]-6-cyclopropyl-1-(1,2-dimethylpiperidin-4-yl)-1H-pyrazolo[3,4-b]pyrazin-3-amine] | > 20000 | 4.05 | –

Next, values leading:

IC50 [1] [nM] | DC50 [2] [nM] | (IC50 CDK12 high ATP) to (Degradation DC50 CDK12) ratio [2] | SMILES
> 20000 | 49.1 | 41 | CN1CCC(n2nc(NCc3nc4cc(SC(F)(F)F)ccc4[nH]3)c3ncc(C4CC4)nc32)CC1 [Example 27, 6-cyclopropyl-1-(1-methylpiperidin-4-yl)-N-({5-[(trifluoromethyl)sulfanyl]-1H-benzimidazol-2-yl}methyl)-1H-pyrazolo[3,4-b]pyrazin-3-amine]
> 20000 | 10.8 | – | O[C@H]1C[C@H](Cn2nc(NCc3nc4ccccc4[nH]3)c3ncc(C4CC4)nc32)C1 [Example 70, trans-3-[(3-{[(1H-benzimidazol-2-yl)methyl]amino}-6-cyclopropyl-1H-pyrazolo[3,4-b]pyrazin-1-yl)methyl]cyclobutan-1-ol]
> 20000 | 43.9 | >455 | O=CO.c1ccc(-n2nc(NCc3nc4ccccc4[nH]3)c3ncc(C4CC4)nc32)cc1 [Example 13, formic acid—N-[(1H-benzimidazol-2-yl)methyl]-6-cyclopropyl-1-phenyl-1H-pyrazolo[3,4-b]pyrazin-3-amine (1/1)]
> 20000 | 34.9 | – | CC1CC(n2nc(NCc3nc4ccccc4[nH]3)c3ncc(C4CC4)nc32)CCO1 (racemic) [Example 44, (±)-cis/trans-N-[(1H-benzimidazol-2-yl)methyl]-6-cyclopropyl-1-(2-methyloxan-4-yl)-1H-pyrazolo[3,4-b]pyrazin-3-amine]
> 20000 | 41.2 | – | CN1CCC(n2nc(NCc3nc4ccccc4[nH]3)c3ncc(C4CC4)nc32)C1 (single isomer, unassigned) [Example 79, (−) or (+)-N-[(1H-benzimidazol-2-yl)methyl]-6-cyclopropyl-1-(1-methylpyrrolidin-3-yl)-1H-pyrazolo[3,4-b]pyrazin-3-amine]
> 20000 | 82.6 | >242 | CC(CCN(C)C)n1nc(NCc2nc3ccccc3[nH]2)c2ncc(C3CC3)nc21 (single isomer, unassigned) [Example 64, (−) or(+)-N-[(1H-benzimidazol-2-yl)methyl]-6-cyclopropyl-1-[4-(dimethylamino)butan-2-yl]-1H-pyrazolo[3,4-b]pyrazin-3-amine]
> 20000 | 20.5 | – | COCCn1nc(NCc2nc3ccccc3[nH]2)c2ncc(C3CC3)nc21 [Example 65, N-[(1H-benzimidazol-2-yl)methyl]-6-cyclopropyl-1-(2-methoxyethyl)-1H-pyrazolo[3,4-b]pyrazin-3-amine]
> 20000 | 8.65 | >2312 | Cc1cccc2[nH]c(CNc3nn(C4CCOCC4)c4nc(C5CC5)cnc34)nc12 [Example 33, 6-cyclopropyl-N-[(4-methyl-1H-benzimidazol-2-yl)methyl]-1-(oxan-4-yl)-1H-pyrazolo[3,4-b]pyrazin-3-amine]
> 20000 | 1.92 | – | CN1CCC(n2nc(NCc3nc4c(F)cccc4[nH]3)c3ncc(C4CC4)nc32)CC1 [Example 3, 6-cyclopropyl-N-[(4-fluoro-1H-benzimidazol-2-yl)methyl]-1-(1-methylpiperidin-4-yl)-1H-pyrazolo[3,4-b]pyrazin-3-amine]
> 20000 | 162 | >124 | FC1(F)CCC(n2nc(NCc3nc4ccccc4[nH]3)c3ncc(C4CC4)nc32)CC1 [Example 36, N-[(1H-benzimidazol-2-yl)methyl]-6-cyclopropyl-1-(4,4-difluorocyclohexyl)-1H-pyrazolo[3,4-b]pyrazin-3-amine]

From US20230192700A1, “PYRAZOLOPYRAZINES ACTING ON CANCERS VIA INHIBITION OF CDK12” (Bayer Aktiengesellschaft, priority 2020, published 2023)
